Results as given in US20050245399A1, “Pyrazole derivatives as herbicidal compositions containing them” (ISHIHARA SANGYO KAISHA, LTD., priority 2004, published 2005).

Tests used:
Type in all cases: in vivo
[1] = test system: barnyardgrass (Echinochloa crus-galli L.): ECHCG; test: Test Example 1 pre-emergence herbicidal activity, ECHCG; settings: visually observed 20th to 23rd day after application
Summary of the method: (§1)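 Plants were sown in pots of upland field soil and treated the following day, before emergence, with the formulated compound sprayed in 500 L/ha water. Herbicidal effect was judged by eye 20–23 days later on a 0–100% scale.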

[2] = test system: crabgrass (Digitaria sanguinalis L.): DIGSA; test: Test Example 1 pre-emergence herbicidal activity, DIGSA; settings: visually observed 20th to 23rd day after application
Summary of the method: as §1

[3] = test system: green foxtail (Setaria viridis L.): SETVI; test: Test Example 1 pre-emergence herbicidal activity, SETVI; settings: visually observed 20th to 23rd day after application
Summary of the method: as §1

[4] = test system: redroot pigweed (Amaranthus retroflexus L.): AMARE; test: Test Example 1 pre-emergence herbicidal activity, AMARE; settings: visually observed 20th to 23rd day after application
Summary of the method: as §1

[5] = test system: prickly sida (Sida spinosa L.): SEDSP; test: Test Example 1 pre-emergence herbicidal activity, SIDSP; settings: visually observed 20th to 23rd day after application
Summary of the method: as §1

[6] = test system: velvetleaf (Abutilon theophrasti): ABUTH; test: Test Example 1 pre-emergence herbicidal activity, ABUTH; settings: visually observed 20th to 23rd day after application
Summary of the method: as §1

[7] = test system: rice (Oryza sativa L.): ORYSA; test: Test Example 1 pre-emergence herbicidal activity, ORYSA; settings: visually observed 20th to 23rd day after application
Summary of the method: as §1

[8] = test system: wheat (Triticum aestivum L.): TRZAX; test: Test Example 1 pre-emergence herbicidal activity, TRZAX; settings: visually observed 20th to 23rd day after application
Summary of the method: as §1

[9] = test system: corn (Zea mays L.): ZEAMX; test: Test Example 1 pre-emergence herbicidal activity, ZEAMX; settings: visually observed 20th to 23rd day after application
Summary of the method: as §1

[10] = test system: soybean (Glycine max Merr.): GLXMA; test: Test Example 1 pre-emergence herbicidal activity, GLXMA; settings: visually observed 20th to 23rd day after application
Summary of the method: as §1

[11] = test system: barnyardgrass (Echinochloa crus-galli L.), ECHCG; test: Test Example 2 post-emergence (foliage treatment) herbicidal activity, ECHCG; settings: 63 g a.i./ha
Summary of the method: (§2)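 Seeds are sown in upland soil in pots, and seedlings are sprayed once they reach set leaf stages (pigweed 0.1-1.5, barnyardgrass 1.1-2.1, crabgrass 1.0-2.0, rice 1.0-2). The formulated compound goes on in 500 L/ha water containing 0.1% (v/v) spreader. Effect is judged by eye 20-23 days on, as percent control.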

[12] = test system: crabgrass (Digitaria sanguinalis L.), DIGSA; test: Test Example 2 post-emergence (foliage treatment) herbicidal activity, DIGSA; settings: 63 g a.i./ha
Summary of the method: as §2

[13] = test system: green foxtail (Setaria viridis L.), SETVI; test: Test Example 2 post-emergence (foliage treatment) herbicidal activity, SETVI; settings: 63 g a.i./ha
Summary of the method: (§3)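 Foliar spray of formulated compound (500 L/ha dilution water, 0.1% v/v spreader) onto young potted plants at defined leaf stages. Scored 0-100% by visual inspection 20-23 d post-spray.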

[14] = test system: prickly sida (Sida spinosa L.), SIDSP; test: Test Example 2 post-emergence (foliage treatment) herbicidal activity, SIDSP; settings: 63 g a.i./ha
Summary of the method: as §3

[15] = test system: velvetleaf (Abutilon theophrasti), ABUTH; test: Test Example 2 post-emergence (foliage treatment) herbicidal activity, ABUTH; settings: 63 g a.i./ha
Summary of the method: as §3

[16] = test system: rice (Oryza sativa L.), ORYSA; test: Test Example 2 post-emergence (foliage treatment) herbicidal activity, ORYSA; settings: 63 g a.i./ha
Summary of the method: as §2

[17] = test system: wheat (Triticum aestivum L.), TRZAX; test: Test Example 2 post-emergence (foliage treatment) herbicidal activity, TRZAX; settings: 63 g a.i./ha
Summary of the method: as §3

[18] = test system: corn (Zea mays L.), ZEAMX; test: Test Example 2 post-emergence (foliage treatment) herbicidal activity, ZEAMX; settings: 63 g a.i./ha
Summary of the method: as §3

[19] = test system: soybean (Glycine max Merr.), GLXMA; test: Test Example 2 post-emergence (foliage treatment) herbicidal activity, GLXMA; settings: 63 g a.i./ha
Summary of the method: as §3

[20] = test system: barnyardgrass (Echinochiloa oryzicola: ECHOR); test: Test Example 3 water application herbicidal activity (paddy), ECHOR; settings: 63 g a.i./ha, water application under submerged condition at 0.5 leaf stage, visually observed 14th day after application; 0 = untreated control, 100 = complete kill
From the text: (§4) Paddy field soil was put into a 1/1,000,000 ha pot and seeds of barnyardgrass (Echinochiloa oryzicola: ECHOR) and japanese bulrush (Scirpus juncoides: SCPJO) were sown and slightly covered with soil. Then the pot was left to stand still in a greenhouse in a state where the depth of flooding water was from 0.5 to 1 cm, and one day later, tubers of japanese ribbon wapato (Sagittaria pygmaea: SA GPY) were planted. Thereafter, the depth of flooding water was maintained at a level of from 3 to 4 cm, and when barnyardgrass and japanese bulrush reached a 0.5 leaf stage, an aqueous diluted solution of a wettable powder or emulsifiable concentrate having the compound of the present invention formulated in accordance with a usual formulation method, was uniformly applied under submerged condition by a pipette so that the dose of the active ingredient would be at a predetermined level. On the other hand, paddy filed soil was put into a 1/1,000,000 ha pot and puddled and leveled, and the depth of flooding water was from 3 to 4 cm. One day later, rice (Oryza sativa L.: ORYSA) of 2 leaf stage was transplanted in a depth of 3 cm. On the 4th day after the transplantation, the compound of the present invention was applied in the same manner as described above. On the 14th day after the application of the herbicide, the growth of barnyardgrass, japanese burlush and japanese ribbon wapato was visually observed and on the 21st day after the application of the herbicide, the growth of rice was visually observed, and the herbicidal effects were evaluated by growth controlling degrees (%) ranging from 0 (equivalent to the untreated control) to 100 (complete kill), whereby the results shown in Table 6, were obtained. Compound Nos. in Table 6 correspond to Compound Nos. in Table 1 and 2 given hereinbefore.

[21] = test system: japanese bulrush (Scirpus juncoides: SCPJO); test: Test Example 3 water application herbicidal activity (paddy), SCPJO; settings: 63 g a.i./ha, water application under submerged condition at 0.5 leaf stage, visually observed 14th day after application; 0 = untreated control, 100 = complete kill
From the text: as §4

[22] = test system: japanese ribbon wapato (Sagittaria pygmaea: SA GPY); test: Test Example 3 water application herbicidal activity (paddy), SAGPY; settings: 63 g a.i./ha, water application under submerged condition, tubers planted, visually observed 14th day after application; 0 = untreated control, 100 = complete kill
From the text: as §4

[23] = test system: rice (Oryza sativa L.: ORYSA); test: Test Example 3 water application herbicidal activity (paddy), transplanted rice ORYSA; settings: 63 g a.i./ha, water application 4th day after transplantation of 2 leaf stage rice, visually observed 21st day after application; 0 = untreated control, 100 = complete kill
From the text: as §4

[24] = test system: redroot pigweed (Amaranthus retroflexus L.), AMARE; test: Test Example 2 post-emergence (foliage treatment) herbicidal activity, AMARE; settings: 63 g a.i./ha
Summary of the method: as §2

Compound | Pre-emergence Herbicidal Activity ECHCG (growth controlling degree) ([1]; Rate 125 g a.i./ha) [%] | Pre-emergence Herbicidal Activity DIGSP (growth controlling degree) ([2]; Rate 125 g a.i./ha) [%] | Pre-emergence Herbicidal Activity SETVI (growth controlling degree) ([3]; Rate 125 g a.i./ha) [%] | Pre-emergence Herbicidal Activity AMARE (growth controlling degree) ([4]; Rate 125 g a.i./ha) [%] | Pre-emergence Herbicidal Activity SIDSP (growth controlling degree) ([5]; Rate 125 g a.i./ha) [%] | Pre-emergence Herbicidal Activity ABUTH (growth controlling degree) ([6]; Rate 125 g a.i./ha) [%] | Pre-emergence Herbicidal Activity ORYSA (growth controlling degree) ([7]; Rate 125 g a.i./ha) [%] | Pre-emergence Herbicidal Activity TRZAX (growth controlling degree) ([8]; Rate 125 g a.i./ha) [%] | growth controlling degree, ECHCO [11] [%] | growth controlling degree, DIGSP [12] [%] | growth controlling degree, SETVI [13] [%] | growth controlling degree, SIDSP [14] [%] | growth controlling degree, ABUTH [15] [%] | growth controlling degree, ORYSA [16] [%] | growth controlling degree, TRZAX [17] [%] | growth controlling degree, ZEAMX [18] [%] | growth controlling degree, GLXMA [19] [%] | growth controlling degrees (%) ECHOR [20] [%] | growth controlling degrees (%) SCPJO [21] [%] | growth controlling degrees (%) ORYSA [23] [%] | other results
[3-chloro-6-[4-chloro-5-(difluoromethoxy)-1-methyl-1H-pyrazol-3-yl]-5-fluoro-2-methoxyphenyl]2-propynyl-formamide [Compound 1-7] | 70 | 100 | 95 | 100 | 90 | 80 | 20 | 20 | 50 | 10 | 70 | 100 | 100 | 40 | 10 | 40 | 50 | 95 | 60 | 20 | Pre-emergence Herbicidal Activity ZEAMX (growth controlling degree) ([9]; Rate 125 g a.i./ha): 0%; Pre-emergence Herbicidal Activity GLXMA (growth controlling degree) ([10]; Rate 125 g a.i./ha): 10%; growth controlling degrees (%) SAGPY [22]: 0%
COc1c(Cl)cc(F)c(-c2nn(C)c(OC(F)F)c2Cl)c1NC(=O)OCC(C)C [Compound 1-64] | – | – | – | – | – | – | – | – | 90 | 70 | 100 | 100 | 100 | 30 | 30 | 30 | 50 | 100 | 70 | 40 | Pre-emergence Herbicidal Activity ECHCG (growth controlling degree) ([1]; Rate 63 g a.i./ha): 40%; Pre-emergence Herbicidal Activity DIGSP (growth controlling degree) ([2]; Rate 63 g a.i./ha): 90%; Pre-emergence Herbicidal Activity SETVI (growth controlling degree) ([3]; Rate 63 g a.i./ha): 80%; Pre-emergence Herbicidal Activity AMARE (growth controlling degree) ([4]; Rate 63 g a.i./ha): 100%; Pre-emergence Herbicidal Activity SIDSP (growth controlling degree) ([5]; Rate 63 g a.i./ha): 80%; Pre-emergence Herbicidal Activity ABUTH (growth controlling degree) ([6]; Rate 63 g a.i./ha): 60%; Pre-emergence Herbicidal Activity ORYSA (growth controlling degree) ([7]; Rate 63 g a.i./ha): 10%; Pre-emergence Herbicidal Activity TRZAX (growth controlling degree) ([8]; Rate 63 g a.i./ha): 10%; Pre-emergence Herbicidal Activity ZEAMX (growth controlling degree) ([9]; Rate 63 g a.i./ha): 0%; Pre-emergence Herbicidal Activity GLXMA (growth controlling degree) ([10]; Rate 63 g a.i./ha): 0%; growth controlling degree, AMARE [24]: 100%
Cn1nc(-c2c(F)cc(Cl)c(OC(F)F)c2NS(C)(=O)=O)c(Cl)c1OC(F)F [Compound 1-84] | – | – | – | – | – | – | – | – | 20 | 0 | 10 | 70 | 80 | 10 | 0 | 20 | 50 | 60 | 90 | 30 | Pre-emergence Herbicidal Activity ECHCG (growth controlling degree) ([1]; Rate 63 g a.i./ha): 0%; Pre-emergence Herbicidal Activity DIGSP (growth controlling degree) ([2]; Rate 63 g a.i./ha): 50%; Pre-emergence Herbicidal Activity SETVI (growth controlling degree) ([3]; Rate 63 g a.i./ha): 20%; Pre-emergence Herbicidal Activity AMARE (growth controlling degree) ([4]; Rate 63 g a.i./ha): 70%; Pre-emergence Herbicidal Activity SIDSP (growth controlling degree) ([5]; Rate 63 g a.i./ha): 0%; Pre-emergence Herbicidal Activity ABUTH (growth controlling degree) ([6]; Rate 63 g a.i./ha): 0%; Pre-emergence Herbicidal Activity ORYSA (growth controlling degree) ([7]; Rate 63 g a.i./ha): 10%; Pre-emergence Herbicidal Activity TRZAX (growth controlling degree) ([8]; Rate 63 g a.i./ha): 0%; Pre-emergence Herbicidal Activity ZEAMX (growth controlling degree) ([9]; Rate 63 g a.i./ha): 0%; Pre-emergence Herbicidal Activity GLXMA (growth controlling degree) ([10]; Rate 63 g a.i./ha): 0%; growth controlling degrees (%) SAGPY [22]: 95%
COc1c(Cl)cc(F)c(-c2nn(C)c(OC(F)F)c2Cl)c1N(C(=O)OCCCl)C(=O)OCCCl [Compound 1-52] | 0 | 30 | 50 | 100 | 0 | 0 | 0 | 0 | 50 | 30 | 30 | 90 | 80 | 40 | 10 | 10 | 30 | 100 | 50 | 20 | Pre-emergence Herbicidal Activity ZEAMX (growth controlling degree) ([9]; Rate 125 g a.i./ha): 0%; Pre-emergence Herbicidal Activity GLXMA (growth controlling degree) ([10]; Rate 125 g a.i./ha): 0%; growth controlling degrees (%) SAGPY [22]: 0%
Cn1nc(-c2c(F)cc(Cl)c(OC(F)F)c2N(C=O)Cc2ccccc2)c(Cl)c1OC(F)F [Compound 1-86] | 0 | 0 | 0 | 30 | 0 | 0 | 0 | 0 | 0 | 30 | 10 | 60 | 0 | 0 | 0 | 0 | 40 | 60 | 50 | 10 | Pre-emergence Herbicidal Activity ZEAMX (growth controlling degree) ([9]; Rate 125 g a.i./ha): 0%; Pre-emergence Herbicidal Activity GLXMA (growth controlling degree) ([10]; Rate 125 g a.i./ha): 0%; growth controlling degree, AMARE [24]: 100%
